Data from ChEMBL document CHEMBL1201862, “PubChem BioAssay data set” (2004).
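Growth conditions: 96-well plates. Treatment: test compound, 48 hours, 5 concentrations. Analysis: linear interpolation between bracketing concentrations; unreached endpoints set to highest concentration. Here, GI50 denotes the concentration required for 50% inhibition of growth.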 Calls of active or inactive are those of the source. Cut-off read from the data, not from the text of the source: active = GI50 up to about 1.1 µM and inactive = higher.

Tests used:
Assay in all cases: growth of human tumour cells (NCI), 48 h
[1] = tested on: OVCAR-4
[2] = tested on: HOP-62
[3] = tested on: U-251
[4] = tested on: HCT-116
[5] = tested on: NCI-H460
[6] = tested on: UO-31
[7] = tested on: K562
[8] = tested on: SK-MEL-2
[9] = tested on: COLO 205
[10] = tested on: HT-29
[11] = tested on: SW-620
[12] = tested on: LOX IMVI
[13] = tested on: SK-OV-3
[14] = tested on: MOLT-4
[15] = tested on: SF-539
[16] = tested on: NCI-H23
[17] = tested on: ACHN
[18] = tested on: SF-295
[19] = tested on: CCRF-CEM
[20] = tested on: RXF 393

Measured: GI50

CCOC(=O)C1=C(Nc2ccccc2)SCC1=O
inactive: [1] 63.2 µM | [2] > 100 µM | [3] 10 µM | [4] > 100 µM | [5] > 100 µM | [6] > 100 µM | [7] > 100 µM | [8] > 100 µM | [9] > 100 µM | [10] > 100 µM | [11] > 100 µM | [12] > 100 µM | [13] > 100 µM | [14] > 100 µM | [15] > 100 µM | [16] > 100 µM | [17] > 100 µM | [18] > 100 µM

CC(=O)/N=C1\N/C(=C\c2ccc(Cl)cc2)C(=O)N1/C=C1\C(=O)Oc2ccccc2C1=O
inactive: [1] > 100 µM | [2] > 100 µM | [3] 61.1 µM | [4] > 100 µM | [5] > 100 µM | [19] > 100 µM | [7] 67.3 µM | [8] > 100 µM | [9] > 100 µM | [10] > 100 µM | [20] > 100 µM | [11] > 100 µM | [12] > 100 µM | [13] > 100 µM | [14] > 100 µM | [15] > 100 µM | [16] > 100 µM | [17] > 100 µM | [18] > 100 µM

N#CC(C(=O)CCC(=O)Nc1cccc(C(F)(F)F)c1)c1ccccc1 (centres undefined)
inactive: [1] > 100 µM | [2] > 100 µM | [3] > 100 µM | [4] > 100 µM | [5] > 100 µM | [19] > 100 µM | [6] > 100 µM | [7] > 100 µM | [8] > 100 µM | [10] > 100 µM | [20] > 100 µM | [11] > 100 µM | [12] > 100 µM | [14] > 100 µM | [15] > 100 µM | [16] > 100 µM | [17] > 100 µM | [18] > 100 µM

Cc1cc(C)c(S(=O)(=O)N(CCCCCN)OCCCN)c(C)c1
inactive: [1] 21.5 µM | [2] 16.5 µM | [3] 18.3 µM | [4] 17.9 µM | [5] 16.8 µM | [19] 20.7 µM | [6] 14.1 µM | [7] 17 µM | [8] 17.9 µM | [9] 20.2 µM | [10] 14.1 µM | [20] 10.3 µM | [11] 19 µM | [12] 17.7 µM | [14] 14.4 µM | [15] 11.9 µM | [16] 18.3 µM | [17] 19.5 µM | [18] 15.1 µM

Cc1nc2c(c(=O)[nH]1)S/C(=C(/C#N)c1nc3ccccc3[nH]1)N2c1ccccc1
inactive: [1] > 100 µM | [2] > 100 µM | [3] > 100 µM | [4] > 100 µM | [5] > 100 µM | [19] > 100 µM | [6] > 100 µM | [7] > 100 µM | [8] > 100 µM | [9] > 100 µM | [10] > 100 µM | [20] > 100 µM | [11] > 100 µM | [13] > 100 µM | [14] > 100 µM | [15] > 100 µM | [16] > 100 µM | [17] > 100 µM | [18] > 100 µM

OC(c1ccc(-c2ccccc2)cc1)(c1ccc(-c2ccccc2)cc1)c1ccc(-c2ccccc2)cc1
inactive: [1] > 100 µM | [2] > 100 µM | [3] > 100 µM | [4] > 100 µM | [5] > 100 µM | [19] > 10 µM | [6] > 100 µM | [7] > 100 µM | [9] > 100 µM | [10] > 100 µM | [20] > 100 µM | [12] > 100 µM | [13] > 100 µM | [14] 28.6 µM | [16] > 100 µM | [17] > 100 µM | [18] > 100 µM

CC(=O)CC(=O)/C=C/c1cccs1
inactive: [1] 87.5 µM | [2] > 100 µM | [3] > 100 µM | [4] 40.7 µM | [5] 64.1 µM | [19] 38.5 µM | [6] 93.3 µM | [7] 47.1 µM | [8] > 100 µM | [9] > 100 µM | [10] 58.9 µM | [11] 70.1 µM | [12] 55.2 µM | [13] > 100 µM | [14] > 100 µM | [15] 31.6 µM | [16] > 100 µM | [17] 97.3 µM | [18] > 100 µM
